Common to all, as to type: in vivo
Assay [1] deals with chickweed (common chickweed, Stellaria media). The experiment in a line: Test D pre-/postemergence controlled growth environment herbicide test. The conditions noted are these: scale 0 to 100. An outline of the steps: (§1)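 Preemergence: seeds sown in silt loam soil and sprayed with test chemicals in a non-phytotoxic solvent mixture containing surfactant. Postemergence: plants grown in peat/vermiculite planting medium and sprayed at 2 to 18 cm (1- to 4-leaf stage). Visual rating versus controls after 14 to 21 d, 0 (no effect) to 100 (complete control).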

The test system of assay [2] is speedwell (bird's-eye speedwell, Veronica persica). Described as above. The conditions noted are these: scale 0 to 100. An outline of the steps:
as §1

The test system of assay [3] is canarygrass (Phalaris minor). Described as above. Particulars: scale 0 to 100. The gist of the method:
as §1

Assay [4] concerns crabgrass, large (large crabgrass Digitaria sanguinalis). Nature of the assay: Test E pre-/postemergence greenhouse herbicide test. The conditions noted are these: Preemergence, scale 0 to 100.
In assay [5] the test system is surinam grass (Brachiaria decumbens). The description is as above. The conditions noted are these: Preemergence, scale 0 to 100.
In assay [6] the test system is cocklebur (common cocklebur, Xanthium strumarium). Described as above. The conditions noted are these: Preemergence, scale 0 to 100.
Assay [7] relates to nutsedge, yellow (yellow nutsedge, Cyperus esculentus). Described as above. Particulars: Preemergence, scale 0 to 100.

For the molecule `Cc1cc(=O)n(-c2ccc(F)cc2)nc1Oc1ccnc(C(F)(F)F)c1` [Compound 14, 2-(4-fluorophenyl)-5-methyl-6-[[2-(trifluoromethyl)-4-pyridinyl]oxy]-3 (2H)-pyridazinone], the Plant response rating was 50 in assay [1] (Postemergence, 16 g ai/ha); 60 in assay [1] (Postemergence, 31 g ai/ha); 45 in assay [1] (Postemergence, 62 g ai/ha); 70 in assay [1] (Postemergence, 125 g ai/ha); 90 in assay [1] (Postemergence, 250 g ai/ha); 10 in assay [1] (Preemergence, 16 g ai/ha). In addition, the Plant response rating in assay [1] (Preemergence, 125 g ai/ha) came to 100; in assay [1] (Preemergence, 250 g ai/ha), 95; in assay [2] (Postemergence, 16 g ai/ha), 100; in assay [2] (Postemergence, 31 g ai/ha), 100; in assay [2] (Postemergence, 62 g ai/ha), 100; in assay [2] (Postemergence, 125 g ai/ha), 100. Also, the Plant response rating in assay [2] (Postemergence, 250 g ai/ha) worked out at 100; in assay [2] (Preemergence, 250 g ai/ha) it was 100; in assay [3] (Postemergence, 16 g ai/ha), 15; in assay [3] (Postemergence, 31 g ai/ha) it was 15; in assay [3] (Postemergence, 62 g ai/ha), 15; in assay [3] (Postemergence, 125 g ai/ha), 20. Besides, the Plant response rating in assay [3] (Postemergence, 250 g ai/ha) was determined as 25; in assay [3] (Preemergence, 16 g ai/ha) it was 5; in assay [3] (Preemergence, 31 g ai/ha), 5; in assay [3] (Preemergence, 62 g ai/ha), 20; in assay [3] (Preemergence, 125 g ai/ha), 35; in assay [3] (Preemergence, 250 g ai/ha) it was 80.

On to `CCOc1cc(=O)n(-c2ccc(F)cc2)nc1Cc1ccnc(C(F)(F)F)c1` [Compound 25, 5-ethoxy-2-(4-fluorophenyl)-6-[[2-(trifluoromethyl)-4-pyridinyl]methyl]-3 (2H)-pyridazinone], for which the “Plant response rating: Crabgrass, Large” value was found to be 0 in assay [4] (8 g ai/ha); 0 in assay [4] (16 g ai/ha); 75 in assay [4] (31 g ai/ha); 100 in assay [4] (62 g ai/ha); 100 in assay [4] (125 g ai/ha). Besides, the “Plant response rating: Surinam Grass” value in assay [5] (8 g ai/ha) is 5; in assay [5] (16 g ai/ha), 10; in assay [5] (31 g ai/ha), 80; in assay [5] (62 g ai/ha), 100; in assay [5] (125 g ai/ha), 100. Moreover, the “Plant response rating: Cocklebur” value worked out at 0 in assay [6] (8 g ai/ha); 50 in assay [6] (16 g ai/ha); 20 in assay [6] (31 g ai/ha); 65 in assay [6] (62 g ai/ha); 65 in assay [6] (125 g ai/ha). Also, the “Plant response rating: Nutsedge, Yellow” value in assay [7] (8 g ai/ha), in assay [7] (16 g ai/ha), in assay [7] (31 g ai/ha), in assay [7] (62 g ai/ha) and in assay [7] (125 g ai/ha) was 0 each time.

The values are drawn from patent publication US10202361B2, “Pyridazinones as herbicides” (E I DU PONT DE NEMOURS AND COMPANY, priority 2014, dated 2019).
